Laboratory results taken from US20030203963A1, “Antimicrobial agent” (priority 2001, published 2003).

Experiments:
[1] = tested on: Ent. aerogenes 10102; test: Bioscreen growth inhibition test; type: cell-based, Enterobacter aerogenes; conditions: BS010510, 24 h/30, APP20010213
Protocol: For broth cultures and Bioscreen testing most bacteria were grown in Brain Heart Infusion (BHI, Oxoid, pH 7.4). Lactobacillus sake A10 was grown in de Man, Rogosa, Sharpe medium ([…], Oxoid). Yeasts were grown in Sabouraud Liquid medium (SLM, Oxoid). Most bacteria were cultured at 30° C. Lactic acid bacteria were grown on solid medium in enriched CO2 atmosphere. Clostridium species were grown in Reinforced Clostridial Medium (RCM) at 37° C. anaerobically. Brochothrix thermosphacta fungi and yeasts were grown at 25° C. Fungi were cultured on Malt Extract Agar (MEA, Oxoid).
An automated Microbiology Reader Bioscreen C was used to measure growth curves of the strains in the presence and absence of APP. The Bioscreen C measures the development of turbidity (i.e. growth) kinetically by vertical photometry in 200 wells of a honeycomb microtitre plate, simultaneously. The system consists of a Bioscreen C analyser, which is an incubator and measurement unit, integrated with a PC, software (BioLink v 5.30), printer and a ‘Honeycomb 2’ cuvette multiwell plate. Growth curve data can be analysed within the BioLink software or exported to programs such as Excel.
Broth culture media were dispensed in 270 μl volumes into the wells as directed. […] (depending on the micro-organism under investigation) with readings taken every 20 minutes after the trays were shaken. […]

[2] = tested on: Cl. sporogenes (strains 1.221; Campden; ABC20; 4.440); test: Sensitivity testing for Clostridium species in cooked meat medium; type: cell-based, Clostridium sporogenes; conditions: highest level tested 2000 ppm APP20010215, anaerobically at 37° C.
Protocol: Stock solutions of APP215 (0.5, 1 and 2%) were prepared and filter-sterilised. Cooked meat medium (CMM, Oxoid) was prepared by distributing 1 g of the medium to individual test tubes, which were then filled with 8.9 ml water. After autoclaving 100 μl of the APP stock solutions were added, to give final concentrations of 0, 500, […] and 2000 ppm APP. The tests were inoculated with […] of Clostridium spores, to give an inoculum level of ca. 10 cfu/ml. The tubes were overlaid with 3 ml of 2% agar to maintain anaerobicity. The tests were incubated at 37° C., and examined daily for signs of growth (turbidity, gas production).

[3] = tested on: B. cereus 204; test: Chicken soup trial at 8° C.; type: cell-based, Bacillus cereus; conditions: chicken soup at 8° C.
Source text: (§1) A local supermarket brand of cream of chicken soup was used as a model food system. 600 g packs were purchased from the local supermarket. This was a ‘fresh home-made type’ of soup that was stored in the chill cabinet, with a short shelf life. It was chosen because it is a rich, nutritious food system containing a range of food components including meat, dairy and vegetable.
(§2) Ingredients were labelled as: chicken stock (water, duck fat, chicken, salt, flavourings, yeast extracts, pork gelatine, glucose syrup, vegetable concentrate, milk protein, sugar, malto-dextrin, vegetable oil, citric acid, lactose, chicken fat), ilk, chicken (9%), cream (8%), onion, potato, vegetable oil, modified maize starch, wheat flour, lemon juice, salt, white pepper. pH 5.912. Protein: 3.3%; carbohydrate: 4.7%; fat: 7.2%; fibre: 0.2%; sodium: 0.1%
(§3) For the test the soup was mixed 2:1 in water (to facilitate sampling and mixing) and sterilised by autoclaving at 121° C. for 15 minutes. For each experiment the pH of the soup was recorded; this was between pH 5.79-5.88.
(§4) For TCS010412/8 (which was incubated at 8° C.), APP batch number APP20010213 (concentration 169 mg APP/ml) was used to prepare tests containing 0, 2000 or 4000 ppm APP. 5 g of filter-sterilised APP stock solution was added to 94 g of soup, mixed and then 1 ml of a diluted inoculum suspension (cells or spores as appropriate) was added to give a test inoculum level of 10^3 cfu/g. The soup mixture was shaken vigorously to ensure homogeneous distribution of the APP and micro-organisms. The tests were tested by viable count and then incubated at 8° C. and tested on a twice-weekly basis.
(§5) For TCS010521/8 (incubated at 8° C.), samples were prepared in 27.8 g quantities. 1.5 g of an APP stock solution was added, and the tests inoculated with 0.3 ml of a suitably diluted cell or spore suspension to give a final inoculum of ca. 10^3 cfu/g. APP was tested at 0, 500 and 1000 ppm, and batch number APP20010213 (at 169 mg/ml) was used. The tests were sampled by viable count and then incubated at 8° C. and tested on a twice-weekly basis.

[4] = tested on: Ps. fluorescens 3756; test: Chicken soup trial at 8° C.; type: cell-based, Pseudomonas fluorescens; conditions: chicken soup at 8° C.
Source text: as §1, §2, §3, §4, §5

[5] = tested on: Ps. fluorescens 3756; test: Chicken soup trial at 20° C.; type: cell-based, Pseudomonas fluorescens
Source text: as §1, §2, §3
For TCS010430/20 (incubated at 20° C.) samples were prepared in 18.8 g quantities, to which 1 g of a suitable filter-sterilised APP stock solution was added and an appropriately diluted 0.2 ml inoculum. Great care was again taken to ensure homogeneous distribution of the APP and micro-organisms. This test was sampled by viable count test on a daily basis.

[6] = tested on: Br. thermosphacta; test: Inoculated test in raw meat; type: cell-based, Brochothrix thermosphacta; conditions: Raw inoculated meat at 8° C. pH 5.3
Protocol: Fresh beef steak was purchased from the local butcher, and minced on clean machinery. The raw meat (ca. pH 6.2) was divided into 8×90 samples and inoculated-with 10^3 cfu/ml of test organisms. The meat was mixed thoroughly using a stomacher. 10 g of SDW or 2% APP (Batch number APP20010215) was added, and the meat was again thoroughly mixed. An initial viable count was taken, the meat was incubated at 8° C., and sampled on the following days using non-selective agar (MPCA) and selective agar: XLD for Salmonella; Oxford selective agar (Listeria monocytogenes); and STAA agar (Brochothrix thermosphacta). The pH of the raw meat was pH 5.3.

[7] = 2000 ppm, TCS010412, APP20010213
[8] = 4000 ppm, TCS010412, APP20010213
[9] = 2000 ppm, chicken soup at 20° C., TCSM010430, APP20010213

SMILES: O=C1CC(CO)OC=C1O (stereo not shown) [APP, Ascopyrone P]
- APP level causing total inhibition [1]: 4000 ppm
- Growth inhibition [2]: No growth inhibition
- Counts / spore kill ([3]; 500 and 1000 ppm, TCSM010521, APP215): Counts remain at approx initial level, i.e. no spore kill.
- Total inhibition for ([3]; 500 ppm, TCSM010521, APP215): Total inhibition by 500 and 1000 ppm for >27 days.
- Total inhibition for ([3]; 1000 ppm, TCSM010521, APP215): Total inhibition by 500 and 1000 ppm for >27 days.
- Counts / spore kill ([3]; 2000 and 4000 ppm, TCS010412, APP20010213): Counts remain at initial level, i.e. no spore kill.
- Total inhibition for [3, 7]: Total inhibition by 2000 and 4000 ppm for >60 days.
- Total inhibition for [3, 8]: Total inhibition by 2000 and 4000 ppm for >60 days.
- Effect on growth ([4]; 500 ppm, TCSM010521, APP215): Little effect with 500 ppm
- Counts undetectable ([4]; 1000 ppm, TCSM010521, APP215): At 1000 ppm counts undetectable >3 d
- Total inhibition for ([4]; 1000 ppm, TCSM010521, APP215): Total inhibition by 1000 ppm for >27 days.
- Total inhibition for [4, 7]: Total inhibition by 2000 and 4000 ppm for >60 days.
- Total inhibition for [4, 8]: Total inhibition by 2000 and 4000 ppm for >60 days.
- Counts undetectable from day ([4]; APP samples (2000, 4000 ppm), TCS010412, APP20010213): Counts undetectable from day 1 in APP samples
- Effect on growth ([5]; 1000 ppm, chicken soup at 20° C., TCSM010430, APP20010213): No significant effect with 1000 ppm
- Counts [5, 9]: undetectable).
- Total inhibition for [5, 9]: Total inhibition by 2000 ppm for >42 days (counts
- Total inhibition (effect on growth of target organism by 2000 ppm APP) ([5]; Chicken soup at 20° C. pH 5.8): Ps. fluorescens
- No inhibition (effect on growth of target organism by 2000 ppm APP) [6]: Br. thermosphacta
